The record followed here is patent EP4631938A1, “NITROGEN-CONTAINING HETEROCYCLE WITH SEROTONIN RECEPTOR-BINDING ACTIVITY AND CARBOCYCLIC DERIVATIVE” (Shionogi & Co., Ltd, priority 2022, dated 2024).

In assay [1] the target is T1, human recombinant 5-HT2A receptor (Homo sapiens, UniProt P28223).
T1 construct: expressed in transfected cells; host or cells: Jump-In HEK cells (membrane preparation)
Put plainly: Test Example 1-2: 5-HT2A receptor binding inhibition test ([3H]-Ketanserin; non-specific ligand Ketanserin). The procedure, abridged: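 Membranes expressing the receptor were incubated with [3H]-ketanserin and compound for 1.5 h at 25 °C, then filtered onto plates presoaked in 50 mmol/L Tris-HCl pH 7.4 and scintillation-counted. Non-specific binding was defined with 500 µmol/L unlabeled ketanserin. Ki was taken from dose-response curves, with Kd set for each membrane lot by Scatchard analysis.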

The target of assay [2] is T2, human recombinant 5-HT2C receptor (Homo sapiens, UniProt P28335).
T2 construct: expressed in transfected cells; host or cells: Jump-In HEK cells (membrane preparation)
T2 sequence (P28335 33-458): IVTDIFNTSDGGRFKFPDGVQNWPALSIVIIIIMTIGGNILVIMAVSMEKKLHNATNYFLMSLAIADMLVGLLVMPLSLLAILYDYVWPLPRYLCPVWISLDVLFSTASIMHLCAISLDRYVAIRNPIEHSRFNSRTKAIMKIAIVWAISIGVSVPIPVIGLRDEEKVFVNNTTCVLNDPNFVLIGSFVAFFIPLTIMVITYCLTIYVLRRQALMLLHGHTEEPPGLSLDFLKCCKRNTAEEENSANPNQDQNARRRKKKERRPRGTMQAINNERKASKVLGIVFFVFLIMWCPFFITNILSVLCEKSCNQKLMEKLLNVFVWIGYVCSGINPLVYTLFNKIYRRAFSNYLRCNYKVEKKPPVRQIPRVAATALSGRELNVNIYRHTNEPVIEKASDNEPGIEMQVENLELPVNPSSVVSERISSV
Put plainly: Test Example 2-2: 5-HT2C receptor binding inhibition test ([3H]-Mesulergine; non-specific ligand Ketanserin). The conditions noted are these: non-specific binding with 500 µmol/L Ketanserin, 37°C, 2 hours. As to the method: The Kd value is calculated when the lot of the cell membrane is changed. 1 mmol/L non-specific binding calculating compound dissolved in DMSO or DMSO is previously dispensed to the microplate by 0.5 µL, and the cell membrane is diluted with an Assay buffer. The radioactive ligand solution is diluted step by step, and counts are checked with a liquid scintillator. The Assay buffer containing diluted cell membranes is dispensed by 50 µL/well into the microplate. The radioactive ligand solution is then dispensed by 50 µL/well into the microplate and the plate is sealed. The microplate is allowed to stand at 37°C for 2 hours. During this time, 50 mmol/L Tris-HCl (pH 7.4) is dispensed by 50 µL/well into the UniFilter plate and allowed to stand at 4°C for 1 hour or longer. Thereafter, filtration is performed with a Cell Harvester (PerkinElmer). The radioactive ligand solution is dispensed by 10 µL/well into empty wells of the UniFilter plate. After drying the UniFilter plate at room temperature, MicroScinti20 is dispensed by 50 µL/well into the UniFilter plate, and the plate is sealed. UniFilter plate is allowed to stand at room temperature overnight. The radioactivity of [^3H]-Mesulergine bound to the 5-HT2C receptor is measured using Microbeta2 (PerkinElmer) at a measurement time of 1 min/well. The Saturation curve is drawn from the measured value, and the Kd value is calculated from the slope of the Scatchard Plot.
A compound solution dissolved in DMSO is dispensed to a microplate by 0.5 µL, and a cell membrane and a hot ligand are each diluted with an Assay buffer. The Assay buffer containing diluted cell membrane is then dispensed by 50 µL/well into the microplate. The radioactive ligand solution is then dispensed by 50 µL/well into the microplate and the plate is sealed. The microplate is then allowed to stand at 37°C for 2 hours. During this time, 50 mmol/L Tris-HCl (pH 7.4) is dispensed by 50 µL/well into the UniFilter plate and allowed to stand at 4°C for 1 hour or longer. Thereafter, filtration is performed with a Cell Harvester (PerkinElmer). After drying the UniFilter plate at room temperature, MicroScinti20 is dispensed by 50 µL/well into the UniFilter plate, and the plate is sealed. UniFilter plate is allowed to stand at room temperature overnight. The radioactivity of [^3H]-Mesulergine bound to the 5-HT2C receptor is measured using Microbeta2 (PerkinElmer) at a measurement time of 1 min/well. Non-specific binding is calculated from the radioactivity of [^3H]-Mesulergine in the presence of 500 µmol/L Ketanserin of unlabeled ligand, and total binding is calculated from the radioactivity of [^3H]-Mesulergine in the absence of the compound of the present invention (Vehicle). Finally, the Ki value is calculated from the dose-response curve.
(The binding activity of the compound according to the present invention is calculated from the following binding inhibition rate (%).) Inhibition rate (%) = [1−(c−a)/(b−a)] × 100 [formula] • a; average cpm of non-specific binding • b; average cpm of total binding • c; cpm in the presence of the test compound
The compounds of the present invention were tested essentially as described above.

Where [3] appears, read: [3H]-Ketanserin, non-specific binding with 500 µmol/L Ketanserin, room temperature (25°C), 1.5 hours, read-out: h 5-HT2A Ki.

Read-outs that look alike come from different tables or passages of the source.

T1 sequence (P28223 whole entry): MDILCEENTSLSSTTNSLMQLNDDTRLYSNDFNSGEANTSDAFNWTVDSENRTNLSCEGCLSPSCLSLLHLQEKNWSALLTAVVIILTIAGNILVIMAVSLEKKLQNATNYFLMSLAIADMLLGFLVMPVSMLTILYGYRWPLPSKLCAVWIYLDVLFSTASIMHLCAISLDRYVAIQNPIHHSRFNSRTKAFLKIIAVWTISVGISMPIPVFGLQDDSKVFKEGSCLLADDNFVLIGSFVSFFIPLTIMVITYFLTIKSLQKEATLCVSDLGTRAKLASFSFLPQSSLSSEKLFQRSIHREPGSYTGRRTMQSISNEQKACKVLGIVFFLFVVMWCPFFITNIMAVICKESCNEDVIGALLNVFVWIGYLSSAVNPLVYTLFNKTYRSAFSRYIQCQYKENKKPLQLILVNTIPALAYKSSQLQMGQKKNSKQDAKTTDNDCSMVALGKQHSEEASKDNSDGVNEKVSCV

For orientation: Ki means a dissociation constant, usually derived from enzyme kinetics or from competition with a known ligand. As for `Cn1ncc(Cl)c1-c1cc(Nc2ncc(Cl)cc2F)cnc1OCCO` [Compound I-143], the Ki amounted to 0.259 nM in assay [1] (setting [3]) and 0.274 nM in assay [2].
The like results for `Cc1nnn(C)c1-c1cc(Nc2ncc(C(F)(F)F)cc2F)ccc1OCCO` [Compound I-033] were, in that order, 0.376 nM and 3.43 nM.
Turning to `Cc1nc(C)c(-c2cc(Nc3ncc(C(F)(F)F)cc3F)ccc2OCCO)c(C)n1` [Compound I-097], the values for the Ki in assay [1] (setting [3]) and in assay [2] were 0.509 nM and 1.34 nM, respectively.
For the compound `Cn1ncc(Br)c1-c1cc(Nc2ncc(-c3ccccc3)s2)ccc1OCCO` [Compound I-039], the Ki in assay [1] (setting [3]) was found to be 0.319 nM; in assay [2], 0.245 nM.
For `COc1cnc(Nc2ccc(OCCO)c(-c3c(Br)cnn3C)c2)c(F)c1` [Compound I-079], the Ki in assay [1] (setting [3]) was 0.295 nM; in assay [2] it was 0.625 nM.
With `Cn1ncc(Br)c1-c1cc(Nc2ncc(Br)cc2F)ccc1OCCO` [Compound I-043], the figures for the Ki in assay [1] (setting [3]) and in assay [2] were 0.188 nM and 0.165 nM, respectively.
Take `Cn1ncc(Br)c1-c1cc(Nc2ncc(Cl)cc2F)cnc1OCCO` [Compound I-117]: the Ki is 0.241 nM in assay [1] (setting [3]) and 0.305 nM in assay [2].
Take `Cn1ncc(Br)c1-c1cc(Nc2nccn3c(Br)cnc23)ccc1OCCO` [Compound I-114]: the Ki in assay [1] (setting [3]) was 1.56 nM; in assay [2] it was 4.68 nM.
Regarding `Cn1ncc(C#N)c1-c1cc(Nc2ncc(C(F)(F)F)cc2F)ccc1OCCO` [I-031], the Ki in assay [1] stood at 0.239 nM; in assay [2], 1.6 nM.
With `Cn1ncc(Cl)c1-c1cc(Nc2ncc(Cl)cc2F)ccc1OCCO` [Compound I-136], the values for the Ki in assay [1] (setting [3]) and in assay [2] were 0.167 nM and 0.277 nM, respectively.
Take `Cc1ncnc(C)c1-c1cc(Nc2ncc(Cl)cc2F)ccc1OCCO` [Compound I-057]: the Ki is 0.386 nM in assay [1] (setting [3]) and 5.3 nM in assay [2].
Take `OCCOc1ccc(Nc2ncc(C(F)(F)F)cc2F)cc1-c1c(Br)cnn1C1CC1` [Compound I-067]: the Ki in assay [1] (setting [3]) amounted to 0.403 nM; in assay [2], 0.196 nM.
Turning to `Cn1cnc(Br)c1-c1cc(Nc2ncc(F)cc2F)ccc1OCCO` [Compound I-032], the values for the Ki in assay [1] (setting [3]) and in assay [2] were 0.734 nM and 8.32 nM, respectively.
`Cc1cc(C)c(-c2cc(Nc3ncc(C(F)(F)F)cc3F)ccc2OCCO)c(C)c1` [Compound I-021]: the Ki in assay [1] (setting [3]) is 0.722 nM; in assay [2], 4.1 nM.
The like results for `Cc1nc(C)c(-c2cc(Nc3ccc(Cl)cn3)ccc2OCCO)c(C)n1` [Compound I-123] were, in that order, 0.81 nM and 5.59 nM.
For the compound `Cn1ncc(C#N)c1-c1cc(Nc2ccc(C(F)(F)F)cn2)c(F)cc1OCCO` [Compound I-125], the results for the Ki in assay [1] (setting [3]) and in assay [2] were 0.36 nM and 6.04 nM, respectively.
As for `Cn1cnc(Br)c1-c1cc(Nc2ncc(Cl)cc2F)ccc1OCCO` [Compound I-096], the inhibition constant Ki in assay [1] (setting [3]) stood at 0.341 nM; in assay [2], 1.66 nM.
`COC(=O)c1cnc(Nc2ccc(OCCO)c(-c3c(Br)cnn3C)c2)c(F)c1` [Compound I-046]: the Ki turned out to be 0.318 nM in assay [1] (setting [3]) and 1.33 nM in assay [2].
Regarding `Cn1ncc(Br)c1-c1cc(Nc2nc3c(Cl)cccc3s2)ccc1OCCO` [Compound I-071], the Ki is 0.379 nM in assay [1] (setting [3]) and 1.96 nM in assay [2].
As for `Cn1ncc(Br)c1-c1cc(Nc2ccc(Cl)cn2)c(F)cc1OCCO` [Compound I-153], the Ki in assay [1] (setting [3]) worked out at 0.286 nM; in assay [2] it was 0.351 nM.
Take `Cc1n[nH]c(C)c1-c1cc(Nc2ncc(C(F)(F)F)cc2F)ccc1OCCO` [Compound I-023]: the Ki in assay [1] (setting [3]) worked out at 0.246 nM; in assay [2] it was 3.62 nM.
`Cn1ncc(C#N)c1-c1cc(Nc2ncc(C(F)(F)F)cc2F)ncc1OCCO` [Compound I-072]: the Ki in assay [1] (setting [3]) is 0.412 nM; in assay [2], 4.64 nM.
As to `Cc1ncnc(C)c1-c1cc(Nc2ccc(Cl)cn2)ccc1OCCO` [Compound I-103], the Ki was 0.351 nM in assay [1] (setting [3]) and 9.13 nM in assay [2].
In the case of `Cn1ncc(Br)c1-c1cc(Nc2nc3cc(Cl)ccc3s2)ccc1OCCO` [Compound I-069], the Ki in assay [1] (setting [3]) came to 0.373 nM; in assay [2] it was 0.36 nM.
`Cn1ncc(C#N)c1-c1cc(Nc2ccc(Cl)cn2)ccc1OCCO` [Compound I-102]: the Ki in assay [1] (setting [3]) was found to be 0.265 nM; in assay [2] it was 7.3 nM.
As to `Cn1ncc(Br)c1-c1cc(Nc2ncc(F)cc2F)c(F)cc1OCCO` [Compound I-154], the Ki in assay [1] (setting [3]) is 0.332 nM; in assay [2], 1.1 nM.
With `Cn1ncc(C#N)c1-c1cc(Nc2ncc(C(F)(F)F)cc2F)c(F)cc1OCCO` [I-108], the Ki was 0.478 nM in assay [1] and 6.23 nM in assay [2].
As to `Cn1ncc(Cl)c1-c1cc(Nc2ncc(Cl)cc2F)ncc1OCCO` [Compound I-156], the results for the Ki in assay [1] (setting [3]) and in assay [2] were 0.315 nM and 1.78 nM, respectively.
In the case of `Cc1nc(C)c(-c2cc(Nc3ccc(C(F)(F)F)cn3)c(F)cc2OCCO)c(C)n1` [Compound I-158], the Ki in assay [1] (setting [3]) came to 0.907 nM; in assay [2], 3.5 nM.
On to `Cc1cnn(C)c1-c1cc(Nc2ncc(C(F)(F)F)cc2F)c(Oc2ccn(C)n2)cc1OCCO` [Compound I-035], for which the figures for the Ki in assay [1] (setting [3]) and in assay [2] were 2.54 nM and 2.35 nM, respectively.
Take `Cn1ncc(Br)c1-c1cc(Nc2ncc(C(F)(F)F)cc2F)cnc1OCCO` [I-082]: the Ki in assay [1] stood at 0.184 nM; in assay [2], 0.358 nM.
Consider `CCn1ncc(Br)c1-c1cc(Nc2ncc(C(F)(F)F)cc2F)ccc1OCCO` [Compound I-066], for which the Ki in assay [1] (setting [3]) stood at 0.222 nM; in assay [2] it was 0.17 nM.
In the case of `C=C(C)c1cnn(C)c1-c1cc(Nc2ncc(C(F)(F)F)cc2F)ccc1OCCO` [I-054], the Ki in assay [1] came to 0.632 nM; in assay [2], 1.03 nM.
Consider `Cn1ncc(Br)c1-c1cc(Nc2ncc(Cl)cc2F)ncc1OCCO` [Compound I-155], for which the Ki stood at 0.318 nM in assay [1] (setting [3]) and 1.04 nM in assay [2].
The like results for `Cn1ncc(Br)c1-c1cc(Nc2ncc(C(F)(F)F)cn2)ncc1OCCO` [Compound I-159] were, in that order, 0.295 nM and 1.88 nM.
As to `Cc1cnn(C)c1-c1cc(Nc2ccc(C(F)(F)F)cn2)ccc1OCCO` [Compound I-075], the Ki in assay [1] (setting [3]) turned out to be 0.149 nM; in assay [2], 0.939 nM.
As to `Cn1ncc(C(F)(F)F)c1-c1cc(Nc2ncc(C(F)(F)F)cc2F)ccc1OCCO` [Compound I-052], the values for the Ki in assay [1] (setting [3]) and in assay [2] were 0.389 nM and 0.368 nM, respectively.
Consider `OCCOc1ccc(Nc2ncc(C(F)(F)F)cc2F)cc1-c1ccnc(F)c1Cl` [Compound I-026], for which the values for the Ki in assay [1] (setting [3]) and in assay [2] were 0.894 nM and 7.89 nM, respectively.
On to `Cn1cnc(Cl)c1-c1cc(Nc2ncc(C(F)(F)F)cc2F)ccc1OCCO` [Compound I-095], for which the Ki in assay [1] (setting [3]) was determined as 0.372 nM; in assay [2] it was 0.761 nM.
As for `Cn1ncc(Br)c1-c1cc(Nc2nccc3ccccc23)ccc1OCCO` [Compound I-112], the Ki in assay [1] (setting [3]) came out at 0.276 nM; in assay [2] it was 25.5 nM.
As to `Cn1ncc(Br)c1-c1cc(Nc2ncc(C3CC3)cn2)ccc1OCCO` [Compound I-120], the values for the Ki in assay [1] (setting [3]) and in assay [2] were 0.903 nM and 3.86 nM, respectively.
Regarding `Cc1ncccc1-c1cc(Nc2ncc(C(F)(F)F)cc2F)ccc1OCCO` [Compound I-013], the Ki in assay [1] (setting [3]) was 0.332 nM; in assay [2], 7.21 nM.
